Source: paper PMC10713630, “Elucidation of the structural basis for ligand binding and translocation in conserved insect odorant receptor co-receptors” (Nature Communications, 2023)
Where “and” joins values, the source holds several entries; their conditions need not be identical. Equal values may be shown once. Entries after “also recorded” stand apart in the source; their conditions may differ.

Columns and labels:
DmelOrco Y397S = DmelOrco Y397S (Drosophila melanogaster, UniProt Q9VNB5, Y397S); test: TEVC recording of VUAA1-induced current, DmelOrco Y397S in Xenopus oocytes; format: cell-based
From the text: (§1) All Orco gene sequences were optimized[63] for protein expression in Xenopus laevis oocytes with the GenSmartTM Codon optimization Tool and subcloned into a pGEMHE-derived vector. The wildtype gene of Drosophila melanogaster Orco (DmelOrco) was synthesized by Genscript and subcloned with XmaI/XhoI cloning sites. Site-directed mutagenesis of DmelOrco was done by PCR with the Q5® site directed mutagenesis kit (NEB) using primers optimized with the NEBase Changer online tool and following the supplier’s protocol. After transformation of commercial competent bacteria (XL10 Gold) by standard heat-shock protocol and overnight culture in ampicillin-containing LB plates, positive clones were identified by electrophoretic restriction profile and external sequencing (Genewiz). DNAs of positive clones were amplified with Qiagen MidiPrep Kit and the ORF was fully sequenced. For in vitro transcription, DNAs were linearized with restriction enzyme NotI that cuts a unique site in the 3′ region of the polyA tail. […] DNA and RNA were analyzed by agarose-gel electrophoresis and quantified by spectrophotometry. […]
(§2) Whole cell currents were recorded with the two-electrode voltage-clamp (TEVC) technique with the HiClamp robot (MultiChannel System). […] Data were extracted with M. Vivaudou’s programs[65] and statistically analyzed with Prism 8 (Graphpad).

DmelOrco T80W = DmelOrco T80W (Drosophila melanogaster, UniProt Q9VNB5, T80W); test: TEVC recording of VUAA1-induced current, DmelOrco T80W in Xenopus oocytes; format: cell-based; design: VUAA1-induced current, T80W: unit not given here; details: for VUAA1-induced current, T80W: individual oocytes
From the text: (§3) All Orco gene sequences were optimized[63] for protein expression in Xenopus laevis oocytes with the GenSmartTM Codon optimization Tool and subcloned into a pGEMHE-derived vector. The wildtype gene of Drosophila melanogaster Orco (DmelOrco) was synthesized by Genscript and subcloned with XmaI/XhoI cloning sites. Site-directed mutagenesis of DmelOrco was done by PCR with the Q5® site directed mutagenesis kit (NEB) using primers optimized with the NEBase Changer online tool and following the supplier’s protocol. After transformation of commercial competent bacteria (XL10 Gold) by standard heat-shock protocol and overnight culture in ampicillin-containing LB plates, positive clones were identified by electrophoretic restriction profile and external sequencing (Genewiz). DNAs of positive clones were amplified with Qiagen MidiPrep Kit and the ORF was fully sequenced. For in vitro transcription, DNAs were linearized with restriction enzyme NotI that cuts a unique site in the 3′ region of the polyA tail. The linearized DNAs were purified by the standard phenol:chloroform extraction method and transcribed into mRNA using the T7 ultra mMessage mMachine kit (Thermo Fisher Scientific). mRNAs were purified with the NucleoSpin RNA plus XS kit (Machery-Nagel). DNA and RNA were analyzed by agarose-gel electrophoresis and quantified by spectrophotometry.
(§4) Xenopus laevis oocytes were prepared, as previously described. Briefly, oocytes were defolliculated after surgical retrieval by type 1 A collagenase over 2-3 h under smooth horizontal agitation. They were manually selected and incubated at 19 °C in modified-Barth’s solution (1 mM KCl, 0.82 mM MgSO4, 88 mM NaCl, 2.4 mM NaHCO3, 0.41 mM CaCl2, Ca(NO3)2 0.3 mM, 16 mM HEPES, pH 7.4) supplemented with 100 U mL^−1 of penicillin and streptomycin and 0.1 mg mL^−1 of gentamycin. Each oocyte was micro-injected with the Nanoject instrument (Drummond) with 50 nL of 20 ng of mRNA coding for the Orco of interest. Injected oocytes were incubated individually in 96-well plates for 4 days at 19 °C in the same buffer. Different batches of oocytes have been tested per construct. The results of the mutants of interest have been confirmed by a second set of experiments comparing the amplitudes with WT in the same day and from the same batch of oocytes (Supplementary Fig. 11).
(§5) Whole cell currents were recorded with the two-electrode voltage-clamp (TEVC) technique with the HiClamp robot (MultiChannel System). Microelectrodes were filled with 3 M KCl. The high K^+ buffer used for recordings was composed of 91 mM KCl, 1 mM MgCl2, 1.8 mM CaCl2, 5 mM HEPES, pH 7.4. Membrane voltage was clamped to −50 mV and VUAA1 was applied for 60 s. Data were extracted with M. Vivaudou’s programs[65] and statistically analyzed with Prism 8 (Graphpad).

MhraOR5 = test system: MhraOR5; design: method as in PMID 34349260; details: cited from earlier work
DmelOrco F84S = DmelOrco F84S (Drosophila melanogaster, UniProt Q9VNB5, F84S); test: TEVC recording of VUAA1-induced current, DmelOrco F84S in Xenopus oocytes; format: cell-based; details: 500 µM VUAA1, TEVC
From the text: as §1, §2

DmelOrco M210A = DmelOrco M210A (Drosophila melanogaster, UniProt Q9VNB5, M210A); test: TEVC recording of VUAA1-induced current, DmelOrco M210A in Xenopus oocytes; format: cell-based; details: 500 µM VUAA1, TEVC
From the text: as §1, §2

DmelOrco Y397A = DmelOrco Y397A (Drosophila melanogaster, UniProt Q9VNB5, Y397A); test: TEVC recording of VUAA1-induced current, DmelOrco Y397A in Xenopus oocytes; format: cell-based; design: VUAA1-induced current, Y397A: unit not given here
From the text: as §1, §2

DmelOrco I181S = DmelOrco I181S (Drosophila melanogaster, UniProt Q9VNB5, I181S); test: TEVC recording of VUAA1-induced current, DmelOrco I181S in Xenopus oocytes; format: cell-based; design: VUAA1-induced current, i181S / VUAA1-induced current, I181S: unit not given here; details: for VUAA1-induced current, I181S: Fig.4i dose-response
From the text: as §3, §4, §5

MdesOrco H81F = details: H81 replaced by phenylalanine; cited from earlier work

DmelOrco Y397A, sequence (Q9VNB5 whole entry Y397A, the tested form may be a part): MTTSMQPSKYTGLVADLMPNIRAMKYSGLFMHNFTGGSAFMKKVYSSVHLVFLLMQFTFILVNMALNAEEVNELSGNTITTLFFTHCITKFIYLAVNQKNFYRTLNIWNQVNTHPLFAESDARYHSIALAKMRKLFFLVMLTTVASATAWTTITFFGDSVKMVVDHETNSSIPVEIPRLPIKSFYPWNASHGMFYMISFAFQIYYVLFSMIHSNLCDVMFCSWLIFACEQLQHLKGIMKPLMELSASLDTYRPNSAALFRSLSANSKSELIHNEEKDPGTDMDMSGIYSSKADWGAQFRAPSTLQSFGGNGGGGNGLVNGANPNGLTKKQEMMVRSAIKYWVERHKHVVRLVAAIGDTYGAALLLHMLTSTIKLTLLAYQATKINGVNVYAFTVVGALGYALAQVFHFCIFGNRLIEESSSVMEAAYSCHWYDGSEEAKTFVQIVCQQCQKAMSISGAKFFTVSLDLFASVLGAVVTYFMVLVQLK
DmelOrco Y397S, sequence (Q9VNB5 whole entry Y397S, the tested form may be a part): as the sequence (Q9VNB5 whole entry Y397A, the tested form may be a part) above, with A397S counted along it
DmelOrco T80W, sequence (Q9VNB5 whole entry T80W, the tested form may be a part): as the sequence (Q9VNB5 whole entry Y397A, the tested form may be a part) above, with T80W, A397Y counted along it
DmelOrco I181S, sequence (Q9VNB5 whole entry I181S, the tested form may be a part): as the sequence (Q9VNB5 whole entry Y397A, the tested form may be a part) above, with I181S, A397Y counted along it
DmelOrco M210A, sequence (Q9VNB5 whole entry M210A, the tested form may be a part): as the sequence (Q9VNB5 whole entry Y397A, the tested form may be a part) above, with M210A, A397Y counted along it
DmelOrco F84S, sequence (Q9VNB5 whole entry F84S, the tested form may be a part): as the sequence (Q9VNB5 whole entry Y397A, the tested form may be a part) above, with F84S, A397Y counted along it

Compound: CCc1ccc(NC(=O)CSc2nnc(-c3cccnc3)n2CC)cc1 [VUAA1, N-(4-ethylphenyl)−2-((4-ethyl-5-(3-pyridinyl)−4H-1,2,4-triazol-3-yl)thio)acetamide]
- Response to VUAA1 compared with WT (DmelOrco Y397S; 500 µM VUAA1, TEVC, Y397S): no significant effect; also recorded: did not significantly change the amplitude of activation
- VUAA1-induced current, Y397S (DmelOrco Y397S; Fig.4b, individual oocytes): 0.98 and 1.78 and 4.23 and 0.82 and 0.77 and 1.48 and 8.3 and 6.29 and 5.87 and 5.52 and 1.76 and 2.18 and 1.83
- Response to VUAA1 compared with WT (DmelOrco T80W; 500 µM VUAA1, TEVC, T80W): significantly reduced or abolished the activation
- VUAA1-induced current, T80W (DmelOrco T80W; Fig.4b): 0.01 and 0.63 and 0.07 and 0.04 and 0.05 and 0.57 and 0.84 and 0.02
- VUAA1-induced current, T80W (DmelOrco T80W; Fig.4i dose-response, VUAA1 10 µM (Log(M) -5)): 0.03 and 0.06 (2×) and 0.07 and 0.2 (2×) and 0 and 0.12
- VUAA1-induced current, T80W (DmelOrco T80W; Fig.4i dose-response, VUAA1 25 µM (Log(M) -4.6)): 0.05 and 0.08 and 0.11 and 0.35 and 0.01 and 0.07 and 0.14 and 0.15
- VUAA1-induced current, T80W (DmelOrco T80W; Fig.4i dose-response, VUAA1 50 µM (Log(M) -4.3)): 0.09 and 0.1 and 0.13 and 0.45 and 0.01 and 0.05 and 0.31 and 0.15
- VUAA1-induced current, T80W (DmelOrco T80W; Fig.4i dose-response, VUAA1 100 µM (Log(M) -4)): 0.12 and 0.1 and 0.13 (2×) and 0.42 and 0 and 0.08 and 0.29
- VUAA1-induced current, T80W (DmelOrco T80W; Fig.4i dose-response, VUAA1 500 µM (Log(M) -3.3)): 0.19 and 0.12 (3×) and 0.14 and 0.45 and 0.01 and 0.07
- VUAA1-induced current, T80W (DmelOrco T80W; Fig.4i dose-response, VUAA1 1000 µM (Log(M) -3)): 0.26 and 0.16 and 0.18 and 0.47 and 0.02 and 0.23 and 0.31 and 0.1
- Imax (DmelOrco T80W; concentration-effect curve of VUAA1, TEVC, T80W): 0.23 µA
- Activation of MhraOR5 (MhraOR5): not by VUAA1
- Response to VUAA1 compared with WT (DmelOrco F84S): decreased the response
- Current induced by VUAA1 (median) (DmelOrco M210A): 5.72 µA
- Response to VUAA1 compared with WT (DmelOrco Y397A; 500 µM VUAA1, TEVC, Y397A): did not significantly affect the amplitude of activation; also recorded: did not significantly change the amplitude of activation
- VUAA1-induced current, Y397A (DmelOrco Y397A; Fig.4b, individual oocytes): 3.14 and 11.04 and 1.66 and 7.27 and 3.17 and 5.5 and 5.32 and 6.03 and 4.8 and 7.35 and 2.62
- EC50 (DmelOrco I181S): 102 µM
- Current induced by VUAA1 (median) (DmelOrco I181S; 500 µM VUAA1, TEVC, I181S): 1.40 µA
- Response to VUAA1 compared with WT (DmelOrco I181S; 500 µM VUAA1, TEVC, I181S): clear loss of VUAA1 activation
- VUAA1-induced current, i181S (DmelOrco I181S; Fig.4b, individual oocytes): 1.9 and 2 and 1.3 and 0.38 and 0.78 and 1.7 and 1.5 and 2.2 and 2.1 and 1.2 and 1.4 and 0.46 and 1.1 and 1.8 and 2.3
- VUAA1-induced current, I181S (DmelOrco I181S; VUAA1 10 µM (Log(M) -5), individual oocytes): 0.26 and 0.25 and 0.11
- VUAA1-induced current, I181S (DmelOrco I181S; VUAA1 25 µM (Log(M) -4.6), individual oocytes): 0.22 (2×) and 0.2 and 0.06 and 0.1 and 0.03 and 0.21 and 0.09
- VUAA1-induced current, I181S (DmelOrco I181S; VUAA1 50 µM (Log(M) -4.3), individual oocytes): 0.39 and 0.35 and 0.1 and 0.28 and 0.07 and 0.3 and 0.34 and 0.19
- VUAA1-induced current, I181S (DmelOrco I181S; VUAA1 100 µM (Log(M) -4), individual oocytes): 1.03 and 0.88 and 0.21 and 0.74 and 0.26 and 0.4 and 0.43 and 0.32
- VUAA1-induced current, I181S (DmelOrco I181S; VUAA1 500 µM (Log(M) -3.3), individual oocytes): 1.45 and 1.2 and 0.29 and 2.29 and 0.87 and 0.44 and 0.47 and 0.39
- VUAA1-induced current, I181S (DmelOrco I181S; VUAA1 1000 µM (Log(M) -3), individual oocytes): 1.69 and 1.33 and 0.34 and 1.97 and 0.83 and 0.44 and 0.5 and 0.43
- Imax (DmelOrco I181S; concentration-effect curve of VUAA1, TEVC, I181S): 0.94 µA
- Response of MdesOrco H81F to VUAA1 (MdesOrco H81F): induced a response to VUAA1
